Key:
[1] = tested on: patients with advanced or metastatic prostate cancer; test: Phase I trial KHF-A-001-00: safety of kahalalide F daily x 5 over 1 hour infusion every 21 days; format: in vivo, human
Source text: The rate of subject entry and escalation to the next dose level will depend upon assessment of the safety profile of patients entered at each dose level. Toxicity will be evaluated and graded according to the Common Toxicity Criteria, version 2.0.
In order to minimize the number of patients treated at the subtoxic dose levels, a single patient will be treated per dose level with 100% dose escalation in the absence of any toxicity G2 (excluding alopecia) during their first course of treatment. After the occurrence of grade 2 toxicity (excluding asthenia, alopecia, nausea and vomiting or anemia), the dose level is expanded to three patients with only 50% incremental increase in dosage in advancing to the next dose level. For the occurrence of grade 3 non-hematological toxic effects the dose level should be expanded up to six patients. This second cohort of 3 patients will be included consecutively. If the first or second patient develops dose limiting toxicities no further patients will be treated at this dose level, it will be defined as MTD and the accrual will begin at a lower dose level. If only one DLT occurs at this dose level another 3 patients will be included at the next dose level with an increase of 25% only.
There is no intrapatient dose escalation, only de-escalation. If the toxicity is grade 3 or worse in a course of chemotherapy, then the dose is reduced one level for the next course.
The maximum tolerated dose (MTD) is defined as the dose at which at least 2 out of 3 or more than 3 patients experience DLT. However, it is possible that additional patients may experience DLT due to the timing of patient enrollment into that dose level.
Dose limiting toxicities (DLTs) are defined as follows: […]
Grade IV Neutropenia lasting for >5 days or with a temperature >38.5.
Grade IV thrombocytopenia.
Any other grade III or IV non hematological toxicity, excluding nausea, emesis and hypersensitivity reactions.
Grade III or IV liver toxicity if not reversible by day 21.
These toxicities are only considered DLTs if they happen during cycle 1. […]
A dose of 20 mcg/m2 was considered a safe starting dose on the basis of acute toxicity studies in animals. The trial was designed as an accelerated dose escalation (pharmacokinetically guided).

female mice = settings: single bolus iv injection; cited from earlier work
[2] = Phase I trial KHF-A-001-00: plasma pharmacokinetics (LC-MS/MS); format: in vivo, human
Method: Bioanalysis of KF was performed by LC-MS/MS.

[3] = 19 patients, daily x5 every 21 days, all dose levels
[4] = 20 patients, daily x5 every 21 days, all dose levels
[5] = 20 patients, daily x5 every 21 days, all dose levels, calcium adjusted
[6] = 20 patients, daily x5 every 21 days, all dose levels, not drug-related

Structure (SMILES): C/C=C1\NC(=O)[C@H](Cc2ccccc2)NC(=O)[C@@H](C(C)C)NC(=O)[C@@H](C(C)CC)NC(=O)[C@H](NC(=O)C(NC(=O)[C@H](CCCN)NC(=O)[C@H]2CCCN2C(=O)[C@H](NC(=O)[C@@H](NC(=O)[C@@H](NC(=O)[C@H](NC(=O)CCCC(C)C)C(C)C)C(C)O)C(C)C)C(C)C)C(C)CC)C(C)OC(=O)[C@H](C(C)C)NC1=O (single isomer, unassigned) [kahalalide F]
- only drug related toxicity to date ([1]; 320 μg/m2/day, rapidly reversible, preliminary report, 7 patients): CTC grade 3 ASAT
- Hematologic toxicity (worst per patient): Hemoglobin, Grade 1 [1, 3]: 63.2%
- Hematologic toxicity (worst per patient): Hemoglobin, Grade 2 [1, 3]: 26.3%
- Hematologic toxicity (worst per patient): Hemoglobin, Grade 3 [1, 3]: 0%
- Hematologic toxicity (worst per patient): Hemoglobin, Grade 4 [1, 3]: 0%
- Hematologic toxicity (worst per patient): Leukocytes, Grade 1 [1, 3]: 10.5%
- Hematologic toxicity (worst per patient): Leukocytes, Grade 2 [1, 3]: 0%
- Hematologic toxicity (worst per patient): Leukocytes, Grade 3 [1, 3]: 0%
- Hematologic toxicity (worst per patient): Leukocytes, Grade 4 [1, 3]: 0%
- Hematologic toxicity (worst per patient): Neutrophils, Grade 1 [1, 3]: 5%
- Hematologic toxicity (worst per patient): Neutrophils, Grade 2 [1, 3]: 5%
- Hematologic toxicity (worst per patient): Neutrophils, Grade 3 [1, 3]: 0%
- Hematologic toxicity (worst per patient): Neutrophils, Grade 4 [1, 3]: 0%
- Hematologic toxicity (worst per patient): Platelets, Grade 1 [1, 3]: 21.1%
- Hematologic toxicity (worst per patient): Platelets, Grade 2 [1, 3]: 0%
- Hematologic toxicity (worst per patient): Platelets, Grade 3 [1, 3]: 0%
- Hematologic toxicity (worst per patient): Platelets, Grade 4 [1, 3]: 0%
- Most frequently reported non-hematologic toxicities: Diarrhea, Grade 1 [1, 4]: 10
- Most frequently reported non-hematologic toxicities: Diarrhea, Grade 2 [1, 4]: 5
- Most frequently reported non-hematologic toxicities: Diarrhea, Grade 3 [1, 4]: 0
- Most frequently reported non-hematologic toxicities: Diarrhea, Grade 4 [1, 4]: 0
- Most frequently reported non-hematologic toxicities: Fatigue, Grade 1 [1, 4]: 35
- Most frequently reported non-hematologic toxicities: Fatigue, Grade 2 [1, 4]: 10
- Most frequently reported non-hematologic toxicities: Fatigue, Grade 3 [1, 4]: 25
- Most frequently reported non-hematologic toxicities: Fatigue, Grade 4 [1, 4]: 0
- Most frequently reported non-hematologic toxicities: Hypersensitivity, Grade 1 [1, 4]: 20
- Most frequently reported non-hematologic toxicities: Hypersensitivity, Grade 2 [1, 4]: 5
- Most frequently reported non-hematologic toxicities: Hypersensitivity, Grade 3 [1, 4]: 0
- Most frequently reported non-hematologic toxicities: Hypersensitivity, Grade 4 [1, 4]: 0
- Most frequently reported non-hematologic toxicities: Inject-site reaction, Grade 1 [1, 4]: 10
- Most frequently reported non-hematologic toxicities: Inject-site reaction, Grade 2 [1, 4]: 20
- Most frequently reported non-hematologic toxicities: Inject-site reaction, Grade 3 [1, 4]: 0
- Most frequently reported non-hematologic toxicities: Inject-site reaction, Grade 4 [1, 4]: 0
- Most frequently reported non-hematologic toxicities: Nausea, Grade 1 [1, 4]: 15
- Most frequently reported non-hematologic toxicities: Nausea, Grade 2 [1, 4]: 10
- Most frequently reported non-hematologic toxicities: Nausea, Grade 3 [1, 4]: 0
- Most frequently reported non-hematologic toxicities: Nausea, Grade 4 [1, 4]: 0
- Most frequently reported non-hematologic toxicities: Periph-sens neuro, Grade 1 [1, 4]: 20
- Most frequently reported non-hematologic toxicities: Periph-sens neuro, Grade 2 [1, 4]: 0
- Most frequently reported non-hematologic toxicities: Periph-sens neuro, Grade 3 [1, 4]: 5
- Most frequently reported non-hematologic toxicities: Periph-sens neuro, Grade 4 [1, 4]: 0
- Most frequently reported non-hematologic toxicities: Vomiting, Grade 1 [1, 4]: 15
- Most frequently reported non-hematologic toxicities: Vomiting, Grade 2 [1, 4]: 10
- Most frequently reported non-hematologic toxicities: Vomiting, Grade 3 [1, 4]: 0
- Most frequently reported non-hematologic toxicities: Vomiting, Grade 4 [1, 4]: 0
- Non-hematologic toxicity, lab abnormalities per patient: Albumin, Grade 1 [1, 4]: 30%
- Non-hematologic toxicity, lab abnormalities per patient: Albumin, Grade 2 [1, 4]: 10%
- Non-hematologic toxicity, lab abnormalities per patient: Albumin, Grade 3 [1, 4]: 5%
- Non-hematologic toxicity, lab abnormalities per patient: Albumin, Grade 4 [1, 4]: 0%
- Non-hematologic toxicity, lab abnormalities per patient: Bilirubin, Grade 1 [1, 4]: 10%
- Non-hematologic toxicity, lab abnormalities per patient: Bilirubin, Grade 2 [1, 4]: 0%
- Non-hematologic toxicity, lab abnormalities per patient: Bilirubin, Grade 3 [1, 4]: 0%
- Non-hematologic toxicity, lab abnormalities per patient: Bilirubin, Grade 4 [1, 4]: 0%
- Non-hematologic toxicity, lab abnormalities per patient: CPK, Grade 1 [1, 4]: 35%
- Non-hematologic toxicity, lab abnormalities per patient: CPK, Grade 2 [1, 4]: 0%
- Non-hematologic toxicity, lab abnormalities per patient: CPK, Grade 3 [1, 4]: 0%
- Non-hematologic toxicity, lab abnormalities per patient: CPK, Grade 4 [1, 4]: 0%
- Non-hematologic toxicity, lab abnormalities per patient: Creatinine, Grade 1 [1, 4]: 35%
- Non-hematologic toxicity, lab abnormalities per patient: Creatinine, Grade 2 [1, 4]: 0%
- Non-hematologic toxicity, lab abnormalities per patient: Creatinine, Grade 3 [1, 4]: 0%
- Non-hematologic toxicity, lab abnormalities per patient: Creatinine, Grade 4 [1, 4]: 0%
- Non-hematologic toxicity, lab abnormalities per patient: GGT, Grade 1 [1, 4]: 35%
- Non-hematologic toxicity, lab abnormalities per patient: GGT, Grade 2 [1, 4]: 15%
- Non-hematologic toxicity, lab abnormalities per patient: GGT, Grade 3 [1, 4]: 25%
- Non-hematologic toxicity, lab abnormalities per patient: GGT, Grade 4 [1, 4]: 5%
- Non-hematologic toxicity, lab abnormalities per patient: GOT, Grade 1 [1, 4]: 40%
- Non-hematologic toxicity, lab abnormalities per patient: GOT, Grade 2 [1, 4]: 15%
- Non-hematologic toxicity, lab abnormalities per patient: GOT, Grade 3 [1, 4]: 15%
- Non-hematologic toxicity, lab abnormalities per patient: GOT, Grade 4 [1, 4]: 10%
- Non-hematologic toxicity, lab abnormalities per patient: GPT, Grade 1 [1, 4]: 15%
- Non-hematologic toxicity, lab abnormalities per patient: GPT, Grade 2 [1, 4]: 25%
- Non-hematologic toxicity, lab abnormalities per patient: GPT, Grade 3 [1, 4]: 20%
- Non-hematologic toxicity, lab abnormalities per patient: GPT, Grade 4 [1, 4]: 10%
- Non-hematologic toxicity, lab abnormalities per patient: Hypo P, Grade 1 [1, 4]: 10%
- Non-hematologic toxicity, lab abnormalities per patient: Hypo P, Grade 2 [1, 4]: 15%
- Non-hematologic toxicity, lab abnormalities per patient: Hypo P, Grade 3 [1, 4]: 0%
- Non-hematologic toxicity, lab abnormalities per patient: Hypo P, Grade 4 [1, 4]: 0%
- Non-hematologic toxicity, lab abnormalities per patient: HypoK+, Grade 1 [1, 4]: 20%
- Non-hematologic toxicity, lab abnormalities per patient: HypoK+, Grade 2 [1, 4]: 0%
- Non-hematologic toxicity, lab abnormalities per patient: HypoK+, Grade 3 [1, 4]: 0%
- Non-hematologic toxicity, lab abnormalities per patient: HypoK+, Grade 4 [1, 4]: 0%
- Non-hematologic toxicity, lab abnormalities per patient: HypoNa+, Grade 1 [1, 4]: 10%
- Non-hematologic toxicity, lab abnormalities per patient: HypoNa+, Grade 2 [1, 4]: 0%
- Non-hematologic toxicity, lab abnormalities per patient: HypoNa+, Grade 3 [1, 4]: 5%
- Non-hematologic toxicity, lab abnormalities per patient: HypoNa+, Grade 4 [1, 4]: 5%
- Non-hematologic toxicity, lab abnormalities per patient: HypoCa*, Grade 1 [1, 5]: 65%
- Non-hematologic toxicity, lab abnormalities per patient: HypoCa*, Grade 2 [1, 5]: 0%
- Non-hematologic toxicity, lab abnormalities per patient: HypoCa*, Grade 3 [1, 5]: 0%
- Non-hematologic toxicity, lab abnormalities per patient: HypoCa*, Grade 4 [1, 5]: 0%
- Most frequently reported non-hematologic toxicities: Hypertension, Grade 1 [1, 6]: 0
- Most frequently reported non-hematologic toxicities: Hypertension, Grade 2 [1, 6]: 0
- Most frequently reported non-hematologic toxicities: Hypertension, Grade 3 [1, 6]: 15
- Most frequently reported non-hematologic toxicities: Hypertension, Grade 4 [1, 6]: 0
- Non-hematologic toxicity, lab abnormalities per patient: Alk. phosphatase, Grade 1 [1, 6]: 35%
- Non-hematologic toxicity, lab abnormalities per patient: Alk. phosphatase, Grade 2 [1, 6]: 20%
- Non-hematologic toxicity, lab abnormalities per patient: Alk. phosphatase, Grade 3 [1, 6]: 25%
- Non-hematologic toxicity, lab abnormalities per patient: Alk. phosphatase, Grade 4 [1, 6]: 5%
- Worst toxicity ([1]; Level I, dose 20 mcg/m2, 1 patient): none
- Worst toxicity ([1]; Level II, dose 40, 1 patient): none
- Worst toxicity ([1]; Level III, dose 80, 1 patient): none
- Worst toxicity ([1]; Level IV, dose 160, 1 patient): none
- Worst toxicity ([1]; Level VI, dose 425, 3 patients): none
- Worst toxicity ([1]; Level VIII, dose 700, 3 patients): none
- hematological toxicity ([1]; daily x5 schedule): no hematological toxicity was seen
- most commonly seen liver toxicity in the MTD ([1]; daily x5 schedule): grade 4 transaminases elevation
- maximum tolerated dose (MTD) (female mice): 0.28 mg/kg
- Maximum plasma concentrations ([2]; dose level 320 μg/m2/day): 35 to 50 ng/mL
- clearance ([2]; male, human, plasma, iv infusion over 1 h, 5 consecutive days every 3 weeks, first course, 20-320 μg/m2/day, read-out: Total plasma clearance): 267 mL/min
- half-life ([2]; male, human, plasma, iv infusion over 1 h, 5 consecutive days every 3 weeks, first course, read-out: terminal half-life (converted)): 27.6 min
- relationship between dose and AUC ([2]; whole dose range 20-320 μg/m2/day): linear relationship
- concentration from which active in the clonogenic tumour assay (prostate cancer): ≥ 15 ng/mL
